According to patent US10174044B2, “Fused pyridines as kinase inhibitors” (BRISTOL-MYERS SQUIBB COMPANY, priority 2015, dated 2019):

Target: GST-Xa-hAAK1 (Homo sapiens (Human), UniProt Q2M2I8)
Test: AAK1 Kinase Assay
Type: biochemical
Conditions: bacterially expressed GST-Xa-hAAK1 3.5 nM; ATP 22 μM; fluoresceinated peptide substrate 1.5 μM; 3 hours at room temperature
Protocol: The assays were performed in U-bottom 384-well plates. […] The reactions were initiated by the combination of bacterially expressed, GST-Xa-hAAK1 with substrates and test compounds. The reactions were incubated at room temperature for 3 hours and terminated by adding 60 μl of 35 mM EDTA buffer to each sample. The reactions were analyzed on the Caliper LabChip 3000 (Caliper, Hopkinton, Mass.) by electrophoretic separation of the fluorescent substrate and phosphorylated product. […] Compounds were dissolved at 10 mM in dimethylsulfoxide (DMSO) and evaluated at eleven concentrations. IC50 values were derived by non-linear regression analysis.

Chain of GST-Xa-hAAK1 (Q2M2I8 whole entry): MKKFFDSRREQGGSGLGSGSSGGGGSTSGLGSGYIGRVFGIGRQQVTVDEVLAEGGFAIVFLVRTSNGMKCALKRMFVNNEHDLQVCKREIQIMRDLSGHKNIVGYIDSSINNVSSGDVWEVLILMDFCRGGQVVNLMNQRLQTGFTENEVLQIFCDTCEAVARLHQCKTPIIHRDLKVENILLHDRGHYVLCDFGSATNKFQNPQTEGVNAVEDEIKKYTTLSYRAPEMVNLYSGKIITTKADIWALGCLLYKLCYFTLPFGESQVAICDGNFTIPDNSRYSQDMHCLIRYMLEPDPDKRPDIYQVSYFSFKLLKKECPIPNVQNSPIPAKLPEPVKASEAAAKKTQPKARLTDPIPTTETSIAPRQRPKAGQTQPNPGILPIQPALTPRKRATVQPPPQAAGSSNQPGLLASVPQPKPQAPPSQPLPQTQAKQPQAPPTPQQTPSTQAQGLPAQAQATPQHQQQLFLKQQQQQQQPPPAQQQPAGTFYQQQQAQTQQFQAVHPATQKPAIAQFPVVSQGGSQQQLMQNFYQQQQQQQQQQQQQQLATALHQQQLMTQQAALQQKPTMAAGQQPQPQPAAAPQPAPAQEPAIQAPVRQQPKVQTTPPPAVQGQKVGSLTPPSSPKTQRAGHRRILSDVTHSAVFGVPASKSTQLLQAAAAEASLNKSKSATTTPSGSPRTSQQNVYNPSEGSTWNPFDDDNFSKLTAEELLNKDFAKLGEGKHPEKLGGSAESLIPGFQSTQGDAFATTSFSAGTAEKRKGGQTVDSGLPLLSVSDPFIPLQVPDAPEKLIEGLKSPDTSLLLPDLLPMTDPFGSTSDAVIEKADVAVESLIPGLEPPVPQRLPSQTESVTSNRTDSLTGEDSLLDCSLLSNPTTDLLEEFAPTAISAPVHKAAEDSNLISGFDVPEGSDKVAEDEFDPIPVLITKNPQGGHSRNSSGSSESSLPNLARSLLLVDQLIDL

IC50 [nM]	Structure (SMILES)
123	CC(C)C[C@](C)(N)COc1ccc2c(c1)COc1cnc(NS(C)(=O)=O)cc1-2 [Example 55, (S)—N-(8-((2-amino-2,4-dimethylpentyl)oxy)-6H-isochromeno[3,4-c]pyridin-2-yl)methanesulfonamide]
37	CC(C)C[C@](C)(N)COc1ccc2c(c1)COc1cnc(NS(=O)(=O)C3CC3)cc1-2 [Example 56, (S)—N-(8-((2-amino-2,4-dimethylpentyl)oxy)-6H-isochromeno[3,4-c]pyridin-2-yl)cyclopropanesulfonamide]
34	CC(C)C[C@](C)(N)COc1ccc2c(c1)COc1cnc(F)cc1-2 [Example 57, (S)-1-((2-fluoro-6H-isochromeno[3,4-c]pyridin-8-yl)oxy)-2,4-dimethylpentan-2-amine]
18	COC(=O)Nc1ncc2c(c1Cl)-c1cc(F)c(OC[C@@](C)(N)CC(C)C)cc1CO2 [Example 58, (S)-methyl (8-((2-amino-2,4-dimethylpentyl)oxy)-1-chloro-9-fluoro-6H-isochromeno[3,4-c]pyridin-2-yl)carbamate]
184	CC(C)C[C@](C)(N)COc1ccc2c(c1)COc1cnc(S(C)(=O)=O)cc1-2 [Example 59, (S)-2,4-dimethyl-1-((2-(methylsulfonyl)-6H-isochromeno[3,4-c]pyridin-8-yl)oxy)pentan-2-amine]
0.74	CC(C)C[C@](C)(N)COc1ccc2c(c1)COc1c-2ccnc1N [Example 60, (S)-8-((2-amino-2,4-dimethylpentyl)oxy)-6H-isochromeno[3,4-c]pyridin-4-amine]
0.41	CC(C)C[C@](C)(N)COc1ccc2c(c1Cl)COc1cnc(N)cc1-2 [Example 61, (S)-8-((2-amino-2,4-dimethylpentyl)oxy)-7-chloro-6H-isochromeno[3,4-c]pyridin-2-amine]
0.81	COC(=O)Nc1cc2c(cn1)OCc1c-2ccc(OC[C@@](C)(N)CC(C)C)c1Cl [Example 62, (S)-methyl (8-((2-amino-2,4-dimethylpentyl)oxy)-7-chloro-6H-isochromeno[3,4-c]pyridin-2-yl)carbamate]
15	COC(=O)Nc1nc(Cl)c2c(c1Cl)-c1ccc(OC[C@@](C)(N)CC(C)C)c(Cl)c1CO2 [Example 63, (S)-methyl (8-((2-amino-2,4-dimethylpentyl)oxy)-1,4,7-trichloro-6H-isochromeno[3,4-c]pyridin-2-yl)carbamate]
7.8	COC(=O)Nc1nccc2c1OCc1cc(OC[C@@](C)(N)CC(C)C)ccc1-2 [Example 64, (S)-methyl (8-((2-amino-2,4-dimethylpentyl)oxy)-6H-isochromeno[3,4-c]pyridin-4-yl)carbamate]
